Reference: patent publication US20140113898A1, “BISARYLSULFONE AND DIALKYLARYLSULFONE COMPOUNDS AS CALCIUM CHANNEL BLOCKERS” (Zalicus Pharmaceuticals Ltd., priority 2010, published 2014)

What follows are compounds tested against T1, CaV2.2 (Homo sapiens, UniProt Q00975) (assay: High-throughput CaV2.2/Kir2.3 FLIPR fluorescent assay). Conditions: Table 4; Fluo-4 FLIPR; closed or inactivated state not stated; read-out: FLIPR data CaV2.2.
T1 construct: expressed in transfected cells; host or cells: unnamed doxycycline-inducible cell line
T1 sequence (Q00975 whole entry): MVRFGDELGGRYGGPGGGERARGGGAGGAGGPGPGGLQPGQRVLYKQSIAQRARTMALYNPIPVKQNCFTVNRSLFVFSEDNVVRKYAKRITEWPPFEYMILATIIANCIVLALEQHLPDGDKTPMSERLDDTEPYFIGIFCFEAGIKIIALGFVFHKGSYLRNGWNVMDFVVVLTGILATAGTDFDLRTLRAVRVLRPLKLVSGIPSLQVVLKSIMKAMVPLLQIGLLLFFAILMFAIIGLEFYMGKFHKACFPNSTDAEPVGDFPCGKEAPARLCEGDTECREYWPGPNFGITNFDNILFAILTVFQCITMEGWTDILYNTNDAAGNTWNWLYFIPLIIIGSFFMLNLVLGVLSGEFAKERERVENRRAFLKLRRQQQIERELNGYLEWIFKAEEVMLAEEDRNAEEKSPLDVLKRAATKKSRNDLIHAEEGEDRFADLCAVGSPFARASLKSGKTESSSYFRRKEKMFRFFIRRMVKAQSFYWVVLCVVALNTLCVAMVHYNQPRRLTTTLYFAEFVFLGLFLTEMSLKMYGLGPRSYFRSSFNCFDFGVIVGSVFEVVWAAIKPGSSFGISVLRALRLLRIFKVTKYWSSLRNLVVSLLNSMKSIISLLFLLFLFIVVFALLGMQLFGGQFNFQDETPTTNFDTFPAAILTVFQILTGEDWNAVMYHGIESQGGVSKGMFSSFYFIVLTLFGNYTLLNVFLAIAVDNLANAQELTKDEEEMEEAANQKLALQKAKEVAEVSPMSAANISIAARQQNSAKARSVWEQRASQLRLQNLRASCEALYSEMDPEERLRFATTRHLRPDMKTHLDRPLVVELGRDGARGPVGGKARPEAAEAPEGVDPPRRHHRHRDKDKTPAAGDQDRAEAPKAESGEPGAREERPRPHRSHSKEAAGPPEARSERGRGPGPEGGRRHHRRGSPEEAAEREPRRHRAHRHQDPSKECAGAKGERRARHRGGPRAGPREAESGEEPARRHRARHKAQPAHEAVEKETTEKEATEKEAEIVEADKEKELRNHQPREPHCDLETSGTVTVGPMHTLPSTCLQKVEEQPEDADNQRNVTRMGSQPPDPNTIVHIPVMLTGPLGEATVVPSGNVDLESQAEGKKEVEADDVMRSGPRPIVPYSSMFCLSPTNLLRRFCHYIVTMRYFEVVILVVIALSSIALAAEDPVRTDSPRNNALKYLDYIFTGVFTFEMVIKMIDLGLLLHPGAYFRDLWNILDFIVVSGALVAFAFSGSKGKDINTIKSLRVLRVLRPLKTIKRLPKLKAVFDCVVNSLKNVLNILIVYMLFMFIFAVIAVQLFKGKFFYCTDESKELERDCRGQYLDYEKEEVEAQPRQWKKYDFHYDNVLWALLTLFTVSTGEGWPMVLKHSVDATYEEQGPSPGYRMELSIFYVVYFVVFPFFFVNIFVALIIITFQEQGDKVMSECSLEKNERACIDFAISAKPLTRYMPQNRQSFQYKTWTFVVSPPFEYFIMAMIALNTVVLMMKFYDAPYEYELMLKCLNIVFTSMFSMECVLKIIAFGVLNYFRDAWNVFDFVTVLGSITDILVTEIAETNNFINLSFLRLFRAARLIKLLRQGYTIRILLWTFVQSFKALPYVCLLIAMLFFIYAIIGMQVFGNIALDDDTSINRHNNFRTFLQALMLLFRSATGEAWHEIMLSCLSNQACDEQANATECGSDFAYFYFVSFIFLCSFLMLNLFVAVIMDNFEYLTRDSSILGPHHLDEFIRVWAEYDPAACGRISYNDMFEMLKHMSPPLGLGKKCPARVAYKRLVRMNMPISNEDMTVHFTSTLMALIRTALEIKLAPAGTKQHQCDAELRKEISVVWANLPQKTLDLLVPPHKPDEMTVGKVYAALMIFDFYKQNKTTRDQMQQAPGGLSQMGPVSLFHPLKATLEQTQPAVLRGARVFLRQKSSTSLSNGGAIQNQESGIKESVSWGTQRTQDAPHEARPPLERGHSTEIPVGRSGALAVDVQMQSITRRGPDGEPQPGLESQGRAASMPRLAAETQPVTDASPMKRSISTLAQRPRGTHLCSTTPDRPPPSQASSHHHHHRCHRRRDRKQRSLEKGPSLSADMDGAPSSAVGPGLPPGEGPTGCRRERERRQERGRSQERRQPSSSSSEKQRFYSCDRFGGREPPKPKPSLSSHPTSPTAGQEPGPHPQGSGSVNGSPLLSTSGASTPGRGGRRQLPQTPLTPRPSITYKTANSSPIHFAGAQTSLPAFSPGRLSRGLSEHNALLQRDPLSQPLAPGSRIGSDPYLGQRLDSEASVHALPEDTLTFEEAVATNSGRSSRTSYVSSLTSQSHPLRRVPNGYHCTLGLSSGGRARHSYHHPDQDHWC
T1 sequence (P54284 whole entry partner): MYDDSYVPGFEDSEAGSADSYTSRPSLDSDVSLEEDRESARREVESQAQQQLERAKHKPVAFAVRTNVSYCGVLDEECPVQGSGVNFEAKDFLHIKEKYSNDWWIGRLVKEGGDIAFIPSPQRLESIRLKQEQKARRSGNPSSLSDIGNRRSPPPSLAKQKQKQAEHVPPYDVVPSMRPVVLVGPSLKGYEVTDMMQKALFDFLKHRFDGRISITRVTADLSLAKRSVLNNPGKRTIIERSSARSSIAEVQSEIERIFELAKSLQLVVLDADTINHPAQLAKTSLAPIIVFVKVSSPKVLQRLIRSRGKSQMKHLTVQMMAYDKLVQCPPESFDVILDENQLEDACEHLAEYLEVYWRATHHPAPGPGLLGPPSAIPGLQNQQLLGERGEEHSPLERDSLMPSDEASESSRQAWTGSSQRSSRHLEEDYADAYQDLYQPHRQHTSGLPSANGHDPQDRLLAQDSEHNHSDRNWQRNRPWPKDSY
T1 sequence (P54289 25-946 partner limits assumed): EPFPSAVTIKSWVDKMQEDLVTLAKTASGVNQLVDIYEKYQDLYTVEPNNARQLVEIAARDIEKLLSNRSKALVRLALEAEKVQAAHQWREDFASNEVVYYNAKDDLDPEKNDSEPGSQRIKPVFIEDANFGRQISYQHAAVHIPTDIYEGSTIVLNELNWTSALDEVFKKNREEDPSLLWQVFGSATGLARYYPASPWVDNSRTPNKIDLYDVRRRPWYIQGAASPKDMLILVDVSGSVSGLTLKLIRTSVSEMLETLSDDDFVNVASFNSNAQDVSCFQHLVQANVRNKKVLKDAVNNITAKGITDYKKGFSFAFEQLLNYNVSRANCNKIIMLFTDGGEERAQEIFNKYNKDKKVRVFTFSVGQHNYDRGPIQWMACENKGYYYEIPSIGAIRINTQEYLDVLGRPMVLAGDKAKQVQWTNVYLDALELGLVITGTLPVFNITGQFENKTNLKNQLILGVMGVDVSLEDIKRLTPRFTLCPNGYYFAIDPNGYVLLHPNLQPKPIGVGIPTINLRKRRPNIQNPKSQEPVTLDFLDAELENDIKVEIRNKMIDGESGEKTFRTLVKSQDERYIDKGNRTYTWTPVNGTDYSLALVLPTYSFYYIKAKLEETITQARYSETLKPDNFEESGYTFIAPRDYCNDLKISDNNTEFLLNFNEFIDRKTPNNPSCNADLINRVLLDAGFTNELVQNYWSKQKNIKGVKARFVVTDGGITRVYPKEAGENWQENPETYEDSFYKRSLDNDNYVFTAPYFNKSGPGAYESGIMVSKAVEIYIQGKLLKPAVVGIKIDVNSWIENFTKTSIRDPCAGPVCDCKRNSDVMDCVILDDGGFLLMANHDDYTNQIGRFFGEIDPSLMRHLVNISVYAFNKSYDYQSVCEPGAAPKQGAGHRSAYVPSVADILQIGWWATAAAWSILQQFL
T1 sequence (P54289 947-1103 partner limits assumed): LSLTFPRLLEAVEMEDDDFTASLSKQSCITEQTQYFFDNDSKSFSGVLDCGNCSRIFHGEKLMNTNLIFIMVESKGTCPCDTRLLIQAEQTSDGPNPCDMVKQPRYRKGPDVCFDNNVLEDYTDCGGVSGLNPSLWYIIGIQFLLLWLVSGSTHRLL
Type: cell-based
Protocol: Cells were plated in 384-well, clear-bottom, black-walled, poly-D-lysine coated plates (Becton Dickinson, Franklin Lake, N.J.) 2 days prior to use in the FLIPR assay. 100 μL of cells (1.4×10^6 cell/mL) containing doxycyline (Sigma-Aldrich, 1.5 μg/mL; to induce channel expression) were added to each well using a Multidrop (Thermo Scientific, Waltham, Mass.) and were maintained in 5% CO2 incubator at 37° C. On the morning of the assay, cells were transferred to a 5% CO2 incubator at 29° C.
Cells were washed with a wash buffer containing (in mM): 118 NaCl, 18.4 HEPES, 11.7 D-glucose, 2 CaCl2, 0.5 MgSO4, 4.7 KCl, 1.2 KH2PO4, pH adjusted to 7.2 with NaOH. 4.4 μM of the fluorescent indicator dye, Fluo-4 (Invitrogen), prepared in pluronic acid (Sigma-Aldrich), was loaded into the wells and incubated for 45 minutes at 29° C. in 5% CO2. Cells were then rinsed with either a 2 mM KCl closed-state buffer (in mM: 138.5 NaCl, 10 HEPES, 10 D-glucose, 1 CaCl2, and 2 KCl, with the pH adjusted to 7.4 with NaOH) when performing the closed-state assay or 12.5 mM KCl inactivated-state buffer (in mM: 128 NaCl, 10 HEPES, 10 D-glucose, 1 CaCl2, and 12.5 mM KCl, with the pH adjusted to 7.4 with NaOH) when performing the inactivated-state assay.
Calcium entry was evoked with an addition of 130 mM KCl stimulation buffer (in mM: 10.5 NaCl, 10 HEPES, 10 D-glucose, 1 CaCl2, and 130 KCl, with the pH adjusted to 7.4 with NaOH) for both the closed-state or inactivated-state assay. A change in the Fluo-4 fluorescence signal was assessed using FLIPR^TETRA™ instrument (Molecular Devices, Sunnyvale, Calif.) for 3 minutes following the elevation of extracellular KCl using an illumination wavelength of 470-495 nm with emissions recorded at 515-575 nm.
Concentration-dependent response curves were obtained by comparing the fluorescence signal in the presence of compound and fitted with a logistic function (1) to obtain the concentration that inhibited 50% (IC50) of the RLU signal using OriginPro v.7.5 software (OriginLab, Northampton, Mass.).
To assess the quality of the FLIPR assays the Z-factor (2) was used to quantify the suitability of the assay conditions using the following equation: […]
Data are expressed as mean and standard deviation (SD).

| IC50 | Structure (SMILES) |
| --- | --- |
| 4230 nM | NC1(C(=O)NCc2ccc(S(=O)(=O)c3cccc(C(F)(F)F)c3)cc2)CCOCC1 [Compound 60, 4-amino-N-(4-((3-(trifluoromethyl)phenyl)sulfonyl)benzyl)tetrahydro-2H-pyran-4-carboxamide] |
| 2510 nM | O=C(CCC(F)(F)F)NCc1ccc(S(=O)(=O)c2cccc(C(F)(F)F)c2)cn1 [Compound 105, 4,4,4-trifluoro-N-((5-((3-(trifluoromethyl)phenyl)sulfonyl)pyridin-2-yl)methyl)butanamide] |
| 1650 nM | O=C(NCc1ccccc1S(=O)(=O)c1cccc(C(F)(F)F)c1)c1ccnn1CC(F)(F)F [Compound 48, 1-(2,2,2-trifluoroethyl)-N-(2-((3-(trifluoromethyl)phenyl)sulfonyl)benzyl)-1H-pyrazole-5-carboxamide] |
| 970 nM | CO[C@H]1CN[C@@H](C(=O)NCc2ccc(S(=O)(=O)c3cccc(C(F)(F)F)c3)cc2)C1 [Compound 82, (2R,4R)-4-methoxy-N-(4-((3-(trifluoromethyl)phenyl)sulfonyl)benzyl)pyrrolidine-2-carboxamide] |
| 1110 nM | O=C(NCc1ccccc1S(=O)(=O)c1cccc(C(F)(F)F)c1)c1cnc(C(F)(F)F)nc1 [Compound 45, 2-(trifluoromethyl)-N-(2-((3-(trifluoromethyl)phenyl)sulfonyl)benzyl)pyrimidine-5-carboxamide] |
| 1390 nM | O=C(NCc1cc(S(=O)(=O)c2cccc(C(F)(F)F)c2)ccn1)c1ccnc(C(F)(F)F)n1 [Compound 113, 2-(trifluoromethyl)-N-((4-((3-(trifluoromethyl)phenyl)sulfonyl)pyridin-2-yl)methyl)pyrimidine-4-carboxamide] |
| 1940 nM | CC1(C(=O)NCc2ccc(S(=O)(=O)c3cccc(C(F)(F)F)c3)cc2)CCCCN1 (stereo not drawn) [Compound 85, 2-methyl-N-(4-((3-(trifluoromethyl)phenyl)sulfonyl)benzyl)piperidine-2-carboxamide] |
| 1000 nM | O=C(NCc1ccc(S(=O)(=O)c2cccc(C(F)(F)F)c2)cc1)C1CCCCN1 (stereo not drawn) [Compound 59, N-(4-((3-(trifluoromethyl)phenyl)sulfonyl)benzyl)piperidine-2-carboxamide] |
| 4680 nM | NC1(C(=O)NCc2ccc(S(=O)(=O)c3cccc(C(F)(F)F)c3)cc2)CCS(=O)(=O)CC1 [Compound 61, 4-amino-N-(4-((3-(trifluoromethyl)phenyl)sulfonyl)benzyl)tetrahydro-2H-thiopyran-4-carboxamide 1,1-dioxide] |
| 1740 nM | O=C(NCc1ccccc1S(=O)(=O)c1cccc(C(F)(F)F)c1)c1ccnc(C(F)(F)F)n1 [Compound 46, 2-(trifluoromethyl)-N-(2-((3-(trifluoromethyl)phenyl)sulfonyl)benzyl)pyrimidine-4-carboxamide] |
| 2280 nM | CN1CCCCC1C(=O)NCc1ccc(S(=O)(=O)c2cccc(C(F)(F)F)c2)cc1 (stereo not drawn) [Compound 84, 1-methyl-N-(4-((3-(trifluoromethyl)phenyl)sulfonyl)benzyl)piperidine-2-carboxamide] |
| 1930 nM | NC1(C(=O)NCc2ccc(S(=O)(=O)c3cccc(C(F)(F)F)c3)cc2)CCC1 [Compound 66, 1-amino-N-(4-((3-(trifluoromethyl)phenyl)sulfonyl)benzyl)cyclobutanecarboxamide] |

Same assay, conditions: Table 5; Fluo-4 FLIPR; closed or inactivated state not stated; read-out: FLIPR data CaV2.2

| IC50 | Structure (SMILES) |
| --- | --- |
| 4310 nM | CC(C)(NC(=O)C(C)(C)S(=O)(=O)c1cccc(C(F)(F)F)c1)c1ccccc1 [Compound 126, 2-methyl-N-(2-phenylpropan-2-yl)-2-((3-(trifluoromethyl)phenyl)sulfonyl)propanamide] |
| 1080 nM | CC(C)(CNC(=O)c1ncc(C(F)(F)F)cc1S(C)(=O)=O)S(=O)(=O)c1cccc(C(F)(F)F)c1 [Compound 156, N-(2-methyl-2-((3-(trifluoromethyl)phenyl)sulfonyl)propyl)-3-(methylsulfonyl)-5-(trifluoromethyl)picolinamide] |
| 2920 nM | CC(C)(CNC(=O)c1ccc(S(C)(=O)=O)cc1Cl)S(=O)(=O)c1cccc(C(F)(F)F)c1 [Compound 158, 2-chloro-N-(2-methyl-2-((3-(trifluoromethyl)phenyl)sulfonyl)propyl)-4-(methylsulfonyl)benzamide] |
| 1310 nM | CC(C)(CCNC(=O)c1cn2cc(C(F)(F)F)ccc2n1)S(=O)(=O)c1cc(F)cc(C(F)(F)F)c1 [Compound 214, N-(3-((3-fluoro-5-(trifluoromethyl)phenyl)sulfonyl)-3-methylbutyl)-6-(trifluoromethyl)imidazo[1,2-a]pyridine-2-carboxamide] |
| 1220 nM | COc1cc(CCNC(=O)C(C)(C)S(=O)(=O)c2cccc(C(F)(F)F)c2)ccc1O [Compound 139, N-(4-hydroxy-3-methoxyphenethyl)-2-methyl-2-((3-(trifluoromethyl)phenyl)sulfonyl)propanamide] |
| 1320 nM | CC(C)(CNC(=O)c1ccc(F)cc1Cl)S(=O)(=O)c1cccc(C(F)(F)F)c1 [Compound 159, 2-chloro-4-fluoro-N-(2-methyl-2-((3-(trifluoromethyl)phenyl)sulfonyl)propyl)benzamide] |
| 3160 nM | Cc1c(C(=O)NCCC(C)(C)S(=O)(=O)c2cccc(C(F)(F)F)c2)ncn(C(C)C)c1=O [Compound 215, 1-isopropyl-5-methyl-N-(3-methyl-3-((3-(trifluoromethyl)phenyl)sulfonyl)butyl)-6-oxo-1,6-dihydropyrimidine-4-carboxamide] |
| 10000 nM | CC(C)(C(=O)N1Cc2ccncc2C1)S(=O)(=O)c1cccc(C(F)(F)F)c1 [Compound 148, 2-methyl-1-(1H-pyrrolo[3,4-c]pyridin-2(3H)-yl)-2-((3-(trifluoromethyl)phenyl)sulfonyl)propan-1-one] |
| 3230 nM | CC(C)(CCNC(=O)[C@@H]1CCCN1)S(=O)(=O)c1cccc(C(F)(F)F)c1 [Compound 219, (S)-N-(3-methyl-3-((3-(trifluoromethyl)phenyl)sulfonyl)butyl)pyrrolidine-2-carboxamide] |
| 2170 nM | Cc1nc(C(F)(F)F)ccc1C(=O)NCC(C)(C)S(=O)(=O)c1cccc(C(F)(F)F)c1 [Compound 172, 2-methyl-N-(2-methyl-2-((3-(trifluoromethyl)phenyl)sulfonyl)propyl)-6-(trifluoromethyl)nicotinamide] |
| 10000 nM | CC(C)(CCNC(=O)C1(N)CC1)S(=O)(=O)c1cccc(C(F)(F)F)c1 [Compound 202, 1-amino-N-(3-methyl-3-((3-(trifluoromethyl)phenyl)sulfonyl)butyl)cyclopropanecarboxamide] |
| 1090 nM | CC(C)(C(=O)NCC(O)c1ccccc1Cl)S(=O)(=O)c1cccc(C(F)(F)F)c1 (stereo not drawn) [Compound 141, N-(2-(2-chlorophenyl)-2-hydroxyethyl)-2-methyl-2-((3-(trifluoromethyl)phenyl)sulfonyl)propanamide] |
| 3040 nM | CC(C)(CCNC(=O)c1ccccc1S(C)(=O)=O)S(=O)(=O)c1cccc(C(F)(F)F)c1 [Compound 192, N-(3-methyl-3-((3-(trifluoromethyl)phenyl)sulfonyl)butyl)-2-(methylsulfonyl)benzamide] |
| 1680 nM | CC(C)(CCNC(=O)[C@H]1CCCC[C@H]1N)S(=O)(=O)c1cccc(C(F)(F)F)c1 [Compound 209, (1S,2R)-2-amino-N-(3-methyl-3-((3-(trifluoromethyl)phenyl)sulfonyl)butyl)cyclohexanecarboxamide] |
| 6100 nM | CN1CCCCC1C(=O)NCCC(C)(C)S(=O)(=O)c1cccc(C(F)(F)F)c1 (stereo not drawn) [Compound 221, 1-methyl-N-(3-methyl-3-((3-(trifluoromethyl)phenyl)sulfonyl)butyl)piperidine-2-carboxamide] |
| 1480 nM | CC(C)(CCNC(=O)[C@@H](N)c1ccccc1)S(=O)(=O)c1cccc(C(F)(F)F)c1 [Compound 205, (S)-2-amino-N-(3-methyl-3-((3-(trifluoromethyl)phenyl)sulfonyl)butyl)-2-phenylacetamide] |
| 10000 nM | CC(C)(C(=O)Nc1ccc(Oc2ccncc2)cc1)S(=O)(=O)c1cccc(C(F)(F)F)c1 [Compound 143, 2-methyl-N-(4-(pyridin-4-yloxy)phenyl)-2-((3-(trifluoromethyl)phenyl)sulfonyl)propanamide] |

| Structure (SMILES) | IC50 |
| --- | --- |
| CC(C)(C)Oc1ccc(CNC(=O)C(C)(C)S(=O)(=O)c2cccc(C(F)(F)F)c2)cc1 [Compound 144, N-(4-(tert-butoxy)benzyl)-2-methyl-2-((3-(trifluoromethyl)phenyl)sulfonyl)propanamide] | 360 nM |
